{
  "source": "ChEMBL document CHEMBL1121547",
  "about": "(J Med Chem, 1980)",
  "key": {"[1]": {"molecular_target": "Gamma-aminobutyric acid receptor subunit gamma-1 (Rattus norvegicus, UniProt P23574)", "sequence (P23574 whole entry)": "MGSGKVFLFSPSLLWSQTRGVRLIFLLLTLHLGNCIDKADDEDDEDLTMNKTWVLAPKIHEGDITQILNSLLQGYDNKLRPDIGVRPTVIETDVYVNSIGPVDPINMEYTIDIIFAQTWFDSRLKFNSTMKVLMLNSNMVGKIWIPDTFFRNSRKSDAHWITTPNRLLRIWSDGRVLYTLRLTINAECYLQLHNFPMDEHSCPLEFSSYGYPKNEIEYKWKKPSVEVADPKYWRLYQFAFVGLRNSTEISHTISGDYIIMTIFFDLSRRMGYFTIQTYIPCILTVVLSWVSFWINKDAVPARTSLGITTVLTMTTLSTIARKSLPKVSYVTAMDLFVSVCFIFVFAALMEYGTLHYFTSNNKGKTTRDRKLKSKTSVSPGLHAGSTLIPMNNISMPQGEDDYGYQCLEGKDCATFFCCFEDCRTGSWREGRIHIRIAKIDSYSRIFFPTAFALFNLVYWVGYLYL", "assay": "[…] of [3H]GABA at Gamma-aminobutyric acid receptor in rat brain membranes at 0.01 uM", "type": "cell membranes"}, "[2]": {"molecular_target": "GABA-A receptor; anion channel (Rattus norvegicus) (UniProt O09028+P15431+P18506+P18508+P19969+P20236+P23574+P23576+P28471+P28473+P30191+P62813+P63079+P63138+Q91ZM7+Q9ES14)", "assay": "Relative binding affinity for sodium-independent Gamma-aminobutyric acid receptor synaptic membrane binding site in rat brain tissue", "type": "tissue-based"}, "[3]": {"molecular_target": "GABA-A receptor; anion channel", "assay": "Displacement of [3H]gamma-aminobutyric acid from sodium-independent Gamma-aminobutyric acid (GABA-A) receptor synaptic membrane binding sites from rat brain tissue"}},
  "data": [
    {"molecule": "CN1CCc2cc3c(cc2[C@H]1[C@@H]1OC(=O)c2c1ccc1c2OCO1)OCO3", "note": "[BICUCULLINE]", "values": [
      {"measurement": "IC50", "setting": "[1]", "value": 3800, "unit": "nM"},
      {"measurement": "Relative affinity", "setting": "[2]", "value": 0.0056}
    ]},
    {"molecule": "NCC1CCC1C(=O)O", "note": "(racemic)", "values": [
      {"measurement": "IC50", "setting": "[3]", "value": 0.00029, "unit": "M l-1"},
      {"measurement": "Relative affinity", "setting": "[2]", "value": 6.9}
    ]},
    {"molecule": "NCc1cc(O)no1", "values": [
      {"measurement": "Relative affinity", "setting": "[2]", "value": 6.3}
    ]},
    {"molecule": "NCc1cc(=O)[nH]o1", "note": "[MUSCIMOL]", "values": [
      {"measurement": "IC50", "setting": "[3]; read-out: IC50", "value": 3.2, "unit": "nM"}
    ]}
  ]
}
